Where “and” joins values, the source holds several entries; their conditions need not be identical. Identical values can stand only once.
System: WM3248 melanoma cells, 486 antibodies
Assay: Reverse phase protein arrays (RPPA);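 on CREB pS133.R.C RPPA level: ratio of treated to vehicle (0 µM) normalized linear protein signal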;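 on Cyclin.B1.R.V RPPA level: ratio of treated to vehicle (0 µM) normalized linear protein signal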;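 on Cyclin.E1.R.V RPPA level: ratio of treated to vehicle (0 µM) normalized linear protein signal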;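 on DDB.1.R.V RPPA level: ratio of treated to vehicle (0 µM) normalized linear protein signal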
Assay type: cell-based, Human
Conditions: 10 uM
Excerpt: Pellets were snap frozen in liquid nitrogen and shipped to MD Anderson Cancer Center core RPPA facility for RPPA analysis (Table S5). Three biological replicates for each sample were generated.
Nomenclatures on the RPPA heatmaps: name_of_antibody.species_of_antibody.status_of_antibody. V - antibody validated; C - validation of antibody in progress; Q - antibody nonspecific; E – under evaluation; antibodies raised in M - mouse, G - goat, R - rabbit, or T - rat.

CN(C)c1cccc(Nc2cc(-c3ccccc3)nc(C3CCNCC3)n2)c1 [ARN22089, N1,N1-dimethyl-N3-(6-phenyl-2-(piperidin-4-yl)pyrimidin-4-yl)benzene-1,3-diamine]
CENP.A.R.V RPPA level (replicates): 1.151 and 1.005 and 0.894 | CHD1L.R.V RPPA level (replicates): 1.053 and 0.975 | CIITA.R.C RPPA level (replicates): 0.943 | COG3.R.V RPPA level (replicates): 1.004 and 1.123 and 1.059 | CRABP1.R.C RPPA level (replicates): 1.020 and 1.132 and 0.998 | CRABP2.R.V RPPA level (replicates): 1.116 and 1.191 and 0.898 | CREB_pS133.R.C RPPA level (replicates): 1.215 and 1.129 and 1.046 | CSK.R.C RPPA level (replicates): 1.016 and 1.050 | Calnexin.R.V RPPA level (replicates): 1.054 and 1.062 and 1.021 | Caspase.3.cleaved.R.C RPPA level (replicates): 0.914 and 0.955 and 0.964 | Caspase.7.cleaved..R.C RPPA level (replicates): 0.854 and 1.203 and 0.935 | Caspase.8.M.Q RPPA level (replicates): 0.939 and 0.985 and 0.948 | Caspase.8.cleaved.R.C RPPA level (replicates): 1.012 and 1.005 | Caveolin.1.R.V RPPA level (replicates): 0.511 and 0.968 and 1.344 | Cdc6.R.V RPPA level (replicates): 1.149 and 0.959 and 0.806 | Cdc42.R.C RPPA level (replicates): 0.879 and 1.031 and 1.047 | Chk1.M.C RPPA level (replicates): 0.982 | Chk1_pS296.R.V RPPA level (replicates): 1.083 and 1.109 and 1.035 | Chk1_pS345.R.C RPPA level (replicates): 1.079 and 0.892 | Chk2.M.V RPPA level (replicates): 1.081 and 1.018 and 0.980 | Chk2_pT68.R.C RPPA level (replicates): 1.106 and 0.986 | Claudin.7.R.V RPPA level (replicates): 1.024 and 1.518 | Collagen.VI.R.V RPPA level (replicates): 1.360 and 0.732 and 0.984 | Complex.II.Subunit.M.V RPPA level (replicates): 0.942 and 1.064 | Connexin.43.R.C RPPA level (replicates): 1.028 and 1.053 and 1.013 | Coup.TFII.R.C RPPA level (replicates): 0.805 and 0.957 and 0.905 | Cox2.R.C RPPA level (replicates): 0.926 | Cox.IV.R.V RPPA level (replicates): 0.954 and 1.028 and 0.879 | Creb.R.C RPPA level (replicates): 0.985 and 0.987 and 0.986 | CtIP.R.V RPPA level (replicates): 0.811 and 0.959 and 1.049 | Cyclin.B1.R.V RPPA level (replicates): 1.215 and 0.558 and 1.046 | Cyclin.D1.R.C RPPA level (replicates): 1.058 and 1.030 | Cyclin.D3.M.V RPPA level (replicates): 1.147 and 1.027 and 0.999 | Cyclin.E1.R.V RPPA level (replicates): 1.052 and 1.061 and 0.904 | D.a.Tubulin.R.V RPPA level (replicates): 0.843 and 1.062 and 1.022 | DAPK1_pS308.M.C RPPA level (replicates): 1.219 and 0.875 | DAPK2.R.C RPPA level (replicates): 0.896 and 0.971 | DDB.1.R.V RPPA level (replicates): 0.816 and 0.798 and 0.956 | DDR1.R.V RPPA level (replicates): 1.205 and 0.959 and 0.921 | DDR1_pY513.R.C RPPA level (replicates): 1.134 and 1.079 and 0.941 | DJ1.R.V RPPA level (replicates): 0.977 and 1.030 | DM.Histone.H3.R.V RPPA level (replicates): 0.923 and 0.956 and 0.905 | DM.K9.Histone.H3.M.V RPPA level (replicates): 1.060 and 1.027 | DNA.Ligase.IV.R.C RPPA level (replicates): 0.876 and 1.063 | DNA_POLG.R.V RPPA level (replicates): 1.161 and 1.030 and 0.850 | c.Jun_pS73.R.V RPPA level (replicates): 0.892 and 1.231 and 0.915 | c.Kit.R.V RPPA level (replicates): 1.223 and 0.923 and 0.946 | c.Met_pY1234_Y1235.R.V RPPA level (replicates): 0.927 and 0.979 | c.Myc.R.C RPPA level (replicates): 0.990 and 1.949 and 1.062 | cGAS.R.V RPPA level (replicates): 1.123 and 1.204 and 1.015 | cdc2_pY15.R.C RPPA level (replicates): 1.056 and 0.933 | cdc25C.R.V RPPA level (replicates): 0.773 and 0.805 and 1.120 | RPPA MYH11.R.C (single replicates): 1.100 and 1.584 | RPPA Myosin.IIa.R.C (single replicates): 0.877 and 0.781 and 1.164 | RPPA Myosin.IIa_pS1943.R.V (single replicates): 0.954 and 0.844 and 1.268 | RPPA Myt1.R.C (single replicates): 0.886 and 0.984 and 1.096 | RPPA N.Cadherin.R.V (single replicates): 1.097 and 1.063 and 1.030 | RPPA N.Ras.M.V (single replicates): 0.953 and 0.958 and 1.062 | RPPA NAPSIN.A.R.C (single replicates): 0.999 and 1.048 | RPPA NDRG1_pT346.R.V (single replicates): 0.798 and 1.051 and 1.195 | RPPA NDUFB4.R.V (single replicates): 1.112 and 1.008 and 0.987 | RPPA NRF2.R.C (single replicates): 1.131 and 0.925 and 0.932 | RPPA Notch1.R.V (single replicates): 1.065 and 1.124 and 1.005 | RPPA Notch1.cleaved.R.V (single replicates): 0.792 and 0.886 and 1.098 | RPPA Notch3.R.C (single replicates): 1.065 and 1.230 and 1.000 | RPPA Oct.4.R.C (single replicates): 0.909 | RPPA P.Cadherin.R.C (single replicates): 1.001 and 0.968 | RPPA PAI.1.M.V (single replicates): 0.919 and 0.946 | RPPA PAICS.R.C (single replicates): 0.926 and 0.836 and 0.997 | RPPA PAK1.R.V (single replicates): 0.749 and 1.057 and 1.078 | RPPA PAK4.R.V (single replicates): 1.101 and 1.108 and 0.979 | RPPA PAK_pS474_S602_S560.R.V (single replicates): 1.125 and 1.130 and 1.000 | RPPA PAK_pT423_T402.R.C (single replicates): 1.141 and 0.908 | RPPA PAR.R.C (single replicates): 0.306 and 0.831 and 0.304 | RPPA PARG.R.C (single replicates): 0.976 and 1.013 and 0.921 | RPPA PARP.R.V (single replicates): 1.079 and 0.890 and 1.083 | RPPA PAX6.R.V (single replicates): 0.992 and 1.020 and 0.997 | RPPA PAX8.R.C (single replicates): 1.133 and 1.022 and 0.978 | RPPA PCNA.M.C (single replicates): 0.928 and 1.013 and 1.020 | RPPA PD.1.R.V (single replicates): 1.076 and 1.064 and 1.035 | RPPA PD.L1.R.C (single replicates): 0.845 and 1.047 | RPPA PDH.M.V (single replicates): 1.032 and 1.047 and 1.014

— article PMC9127750, “Structure-based design of CDC42 effector interaction inhibitors for the treatment of cancer” (Cell reports, 2022)
